Tests used:
[1] = test system: CCL-1 (transformed mouse fibroblasts, NCTC clone 929); assay: MTT dye-reduction cytotoxicity assay (ISO 10993-5); assay type: cell-based; details: for MTC (maximum tolerated concentration): at least 70% of cells viable
Excerpt: (§1) The cell lines utilized in this study included the human tumor lines A-375 (malignant melanoma) and A-431 (non-melanoma epidermoid squamous skin carcinoma) as well as the models for non-tumorigenic cells—HaCaT (immortalized human keratinocytes) and CCL-1^TM (transformed mouse fibroblasts, NCTC clone 929). The first three cell lines were obtained from CLS Cell Lines Service (GmbH, Eppelheim, Germany). CCL-1^TM was purchased from the American Type Culture Collection (ATCC, Manassas, VA, USA). Cells were maintained in a controlled environment—sterile cell culture flasks in a CO2 incubator Panasonic MCO-18AC (Panasonic Healthcare co., ltd, Oizumi-Machi, Japan) at 37 °C and a humidified atmosphere containing 5% CO2. CCL-1 was cultured in MEM with 10% heat-inactivated horse serum and 2 mM L-glutamine, and the cell culture medium for the rest of the cell lines was DMEM-HG with 4.5 g/L glucose with the addition of 10% heat-inactivated fetal bovine serum and 4 mM L-glutamine. Pen/strep (concentration of penicillin G sodium 10^5 Units/L and of streptomycin sulfate 100 mg/L) was added to both culture media. The cell lines were maintained as an adherent monolayer in a log phase. The cells were sub-cultivated about 1–3 times per week after the monolayer reached 80–90% confluence. The medium was removed from the flask, and the cell monolayer was washed with 3–5 mL PBS. The cells were incubated with 0.05% EDTA in PBS for 8–10 min, followed by the next step where all cell lines were subjected to enzyme cell detachment. HaCaT and CCL-1 monolayers were detached with 1 mL solution of trypsin/EDTA (0.1%/0.05% for HaCaT and 0.25% (w/v)/0.53 mM for CCL-1) and incubated for 2–5 min at 37 °C (for HaCaT) or at room temperature (for CCL-1 cells), whereas Accutase® was used for A-375 and A-431 lines. The incubation lasted until the separation and dispersion of the cells in the monolayer were observed using light microscopy. In the end, all cell lines were resuspended in 10 mL medium and centrifuged for 3 min at 300× g. The cell pellet was resuspended in fresh medium and sub-cultivated at a seeding density of 1.0 × 10^4 cells/cm^2.
(§2) The MTT test was performed in order to determine the median inhibitory (IC50) and MTC concentrations of the solvents and PAC according to Annex C, ISO 10993-5 [2, 21]. Briefly, 100 µL of the cell suspension (1 × 10^5 cells/mL) were seeded per well in 96-well plates with a flat bottom. The cells were incubated for 24 h, allowing them to enter the log phase of their growth. On the 24th hour, the cells were treated with the solvents or CystiCran® solutions in concentrations ranging between 0.004% and 2% volume fraction (v/v) and incubated further for 72 h. The incubation periods are following the recommendations of the FDA guide for the use of ISO 10993-1 [1]. At the end of the incubation period, 10 µL of an MTT solution (5 mg/mL) were added to each well, and the plates were kept at 37 °C for 2 hours. Thereafter, the medium was aspirated, and the formed formazan crystals were dissolved in 100 μL/well of 2-propanol supplemented with 5% formic acid. The same solvent was used as a blank. Untreated cells were considered as a negative control. […] The absorption was measured at 540 nm (reference filter at 690 nm) on a microplate reader ELx800 (BioTek Instruments, Inc., Winooski, VT, Winooski, VT, USA).
(§3) The IC50 values from the MTT assay were evaluated with a non-linear regression analysis (Curve fit, GraphPad Prizm 6.01 software, GraphPad Software Inc., San Diego, CA, USA) using sigmoidal concentration–response curves. The cell viability is presented as a percentage of the untreated control. At least four wells were seeded for every concentration. Three independent assays were performed (n = 3).

[2] = test system: HaCaT (immortalized human keratinocytes); assay: MTT dye-reduction cytotoxicity assay (ISO 10993-5); assay type: cell-based; details: solvent alone, n = 3; for MTC (maximum tolerated concentration): 72 h, at least 70% of cells viable; for IC50 (CI 95%): 72 h incubation
Excerpt: as §1, §2, §3

[3] = test system: A-431 (non-melanoma epidermoid squamous skin carcinoma); assay: MTT dye-reduction cytotoxicity assay (ISO 10993-5); assay type: cell-based, human; details: solvent alone, n = 3; for MTC (maximum tolerated concentration): 72 h, at least 70% of cells viable
Excerpt: as §1
as §2, with “blank.” for “blank. Untreated cells were considered as a negative control.”
(§4) The IC50 values from the MTT assay were evaluated with a non-linear regression analysis (Curve fit, GraphPad Prizm 6.01 software, GraphPad Software Inc., San Diego, CA, USA) using sigmoidal concentration–response curves. […]

S. pyogenes SAIMC 10535 = assay: Dehydrogenase activity (DEHA) MTT test after BMD; assay type: cell-based, Streptococcus pyogenes; details: 24 h exposure; % against untreated control; ± SD; n = 3
Method: (§5) The cell dehydrogenase (DEHA, redox, metabolic) activity of all samples was measured at the end of the BMD assay, based on reducing the MTT dye to formazan by the membrane located bacterial enzyme NADH: ubiquinone reductase (H^+-translocation). The protocol of Wang et al. was applied after minor modifications. Briefly, each sample was incubated for 120 min at 37 °C with MTT at a final concentration of 0.5 mg/mL in the culture medium. The resulting non-soluble violet formazan crystals were dissolved with an equal volume of 2-propanol supplemented with 5% formic acid. The absorbance was measured at 550 nm against a blank solution containing the respective volumes of MHB and MTT.
(§6) The cell viability is presented as a percentage of the untreated control. At least four wells were seeded for every concentration. Three independent assays were performed (n = 3). […] The respiratory activity of the bacterial cultures was calculated as a percentage against the untreated control.

E. faecalis ATCC 29212 = assay: Dehydrogenase activity (DEHA) MTT test after BMD; assay type: cell-based, Enterococcus faecalis; details: 24 h exposure; % against untreated control; ± SD; n = 3
Method: as §5, §6

P. aeruginosa ATCC 27853 = assay: Dehydrogenase activity (DEHA) MTT test after BMD; assay type: cell-based, Pseudomonas aeruginosa; details: for DEHA (dehydrogenase activity): 24 h exposure, % against untreated control, ± SD, n = 3
Method: as §5, §6

[4] = test system: A-375 (malignant melanoma); assay: MTT dye-reduction cytotoxicity assay (ISO 10993-5); assay type: cell-based, human; details: solvent alone, n = 3
Excerpt: as §1
as §2, with “blank.” for “blank. Untreated cells were considered as a negative control.”
as §4

[5] = test system: breast cancer, mouse macrophage and human umbilical vein endothelial cells; design: method as in doi:10.17795/ajmb-33453; details: cited from earlier work
[6] = test system: Staphylococcus epidermidis, Salmonella paratyphi A, Vibrio cholerae, Shigella flexneri and Pseudomonas oleovorans; details: cited from earlier work
S. epidermidis = test system: S. epidermidis; design: method as in doi:10.5580/b43; details: in the presence of 6% solvent; cited from earlier work
S. Aureus ATCC 29213 = assay: Dehydrogenase activity (DEHA) MTT test after BMD; assay type: cell-based, Staphylococcus aureus; details: 24 h exposure; % against untreated control; ± SD; n = 3
Method: as §5, §6

polyethylene glycol of average molecular weight 400 [PEG-400]
IC50 value ([1]; 72 h, equals 1.16% v/v): 13 mg/mL | MTC (maximum tolerated concentration) ([1]; solvent alone, 72 h, n = 3): 0.21 % (v/v) | IC50 (CI 95%) ([1]; solvent alone, 72 h incubation, n = 3): 1.16 % (v/v) | MTC (maximum tolerated concentration) [2]: 0.41 % (v/v) | MTC (maximum tolerated concentration) [3]: 0.89 % (v/v) | DEHA (dehydrogenase activity) (S. pyogenes SAIMC 10535): 23.66 ± 0.02% | DEHA (dehydrogenase activity) (E. faecalis ATCC 29212): 65.33 ± 0.06% | DEHA (dehydrogenase activity) (P. aeruginosa ATCC 27853): 15.31 ± 0.04% | suppression of the respiratory activity (P. aeruginosa ATCC 27853; P. aeruginosa): ~85%

CCO [EtOH, ethanol]
MTC (maximum tolerated concentration) ([1]; solvent alone, 72 h, n = 3): 1.15 % (v/v) | MTC (maximum tolerated concentration) [2]: > 2 % (v/v) | IC50 (CI 95%) [2]: > 2 % (v/v) | MTC (maximum tolerated concentration) ([4]; 72 h, at least 70% of cells viable): > 2 % (v/v) | IC50 (CI 95%) ([4]; 72 h incubation): > 2 % (v/v) | MTC (maximum tolerated concentration) [3]: > 2 % (v/v) | IC50 (CI 95%) ([3]; 72 h incubation): > 2 % (v/v) | maximum tolerated concentration (MTC) / applicable concentration [5]: up to 0.5 % v/v | growth inhibition ([6]; at a concentration of 1% v/v): 19% | survival (S. epidermidis): 26%

C[S+](C)[O-] [DMSO, dimethyl sulfoxide]
IC50 (CI 95%) [2]: 1.25 % (v/v) | DEHA (dehydrogenase activity) (S. Aureus ATCC 29213): 12.29 ± 0.04% | DEHA (dehydrogenase activity) (S. pyogenes SAIMC 10535): 27.27 ± 0.02% | DEHA (dehydrogenase activity) (E. faecalis ATCC 29212): 29.86 ± 0.08% | DEHA (dehydrogenase activity) (P. aeruginosa ATCC 27853): 9.78 ± 0.01% | MTC [6]: 3 % volume fraction | survival (S. epidermidis): 15%

— article PMC8143291, “Cytotoxicity and Microbicidal Activity of Commonly Used Organic Solvents: A Comparative Study and Application to a Standardized Extract from Vaccinium macrocarpon” (Toxics, 2021)
